Molecules are shown by their SMILES.

By inhibition is commonly meant the relative decrease from the control value, in per cent.

In assay [1] the target is T1, human recombinant histamine H2 receptor (Homo sapiens, UniProt P25021).
T1 construct: expressed in transfected cells; host or cells: CHO-K1 cells
The experiment in a line: Histamine H2 radioligand binding ([125I]Aminopotentidine). To be noted: compound at 1 μM; read-out: Histamine Binding (1 μM) H2, percent inhibition of specific binding. In short, it runs like this: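 Membranes from CHO-K1 cells expressing recombinant human H2 receptor, in 50 mM phosphate buffer pH 7.4, incubated with 0.1 nM [125I]aminopotentidine for 120 min at 25 °C; nonspecific binding defined with 3 μM tiotidine.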

Assay [2] addresses T2, human recombinant serotonin (5-Hydroxytryptamine) 5-HT6 receptor (Homo sapiens, UniProt P50406).
T2 construct: expressed in transfected cells; host or cells: human HeLa cells
Nature of the assay: Serotonin 5-HT6 radioligand binding ([3H]LSD). To be noted: compound at 1 μM; read-out: Serotonin (1 μM) 5-HT6, percent inhibition of specific binding. The method in brief: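 Human recombinant 5-HT6 receptor from HeLa cells incubated with 1.5 nM [3H]LSD for 120 min at 37° C in 50 mM Tris-HCl pH 7.4, 150 mM NaCl, 2 mM ascorbic acid, 0.001% BSA. Nonspecific binding defined with 5 μM serotonin; bound ligand counted after filtration.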

Assay [3] concerns the target T3, human recombinant histamine H1 receptor (Homo sapiens, UniProt P35367).
T3 construct: expressed in transfected cells; host or cells: CHO cells
Nature of the assay: Histamine H1 radioligand binding ([3H]Pyrilamine). As to conditions: compound at 1 μM; read-out: Histamine Binding (1 μM) H1, percent inhibition of specific binding. The method in brief:
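Membranes from CHO cells expressing the receptor were incubated with compound and 1.2 nM [3H]pyrilamine for 180 min at 25 °C in 50 mM Tris-HCl pH 7.4 with MgCl2, NaCl and sucrose; 1 μM pyrilamine defined non-specific binding. Filter-bound radioactivity was counted.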

Assay [4] has as its target T4, human recombinant adrenergic α1D receptor (Homo sapiens, UniProt P25100).
T4 construct: expressed in transfected cells; host or cells: HEK-293 cells
T4 sequence (P25100 1-572): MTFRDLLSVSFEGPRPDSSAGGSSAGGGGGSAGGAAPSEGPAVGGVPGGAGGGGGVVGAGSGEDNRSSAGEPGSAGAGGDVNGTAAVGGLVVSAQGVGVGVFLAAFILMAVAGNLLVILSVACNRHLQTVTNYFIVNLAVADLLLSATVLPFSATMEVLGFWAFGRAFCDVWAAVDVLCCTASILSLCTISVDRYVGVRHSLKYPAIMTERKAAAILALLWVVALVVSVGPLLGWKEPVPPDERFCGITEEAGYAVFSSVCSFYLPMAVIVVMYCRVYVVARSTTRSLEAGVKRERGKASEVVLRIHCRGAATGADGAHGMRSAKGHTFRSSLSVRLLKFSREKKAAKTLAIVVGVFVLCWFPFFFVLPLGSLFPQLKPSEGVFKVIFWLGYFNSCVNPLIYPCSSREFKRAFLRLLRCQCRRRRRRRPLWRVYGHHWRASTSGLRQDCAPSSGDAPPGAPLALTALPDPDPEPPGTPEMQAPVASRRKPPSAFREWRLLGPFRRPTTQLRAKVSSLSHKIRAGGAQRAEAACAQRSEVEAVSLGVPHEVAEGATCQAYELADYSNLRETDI
The experiment in a line: Adrenergic alpha1D radioligand binding ([3H]Prozosin). To be noted: compound at 1 μM; read-out: Adrenergic (1 μM) α1D, percent inhibition of specific binding. The procedure:
To evaluate in radioligand binding assays the activity of compounds of the invention, human recombinant adrenergic α1D receptor expressed in human embryonic kidney (HEK-293) cells (Kenny, B. A. et al. Br. J. Pharmacol. 115(6):981, 1995) in a 50 mM Tris-HCl buffer, pH 7.4, was used. Compounds of invention were incubated with 0.6 nM [^3H]Prozosin for 60 min. at 25° C. Non-specific binding was estimated in the presence of 10 μM phentolamine. Receptor proteins were filtered and washed, the filters were then counted to determine [^3H]Prozosin specifically bound. Compounds were screened at 1 μM or lower, using 1% DMSO as vehicle. Biochemical assay results are presented as the percent inhibition of specific binding in Table 5.

T3 sequence (P35367 whole entry): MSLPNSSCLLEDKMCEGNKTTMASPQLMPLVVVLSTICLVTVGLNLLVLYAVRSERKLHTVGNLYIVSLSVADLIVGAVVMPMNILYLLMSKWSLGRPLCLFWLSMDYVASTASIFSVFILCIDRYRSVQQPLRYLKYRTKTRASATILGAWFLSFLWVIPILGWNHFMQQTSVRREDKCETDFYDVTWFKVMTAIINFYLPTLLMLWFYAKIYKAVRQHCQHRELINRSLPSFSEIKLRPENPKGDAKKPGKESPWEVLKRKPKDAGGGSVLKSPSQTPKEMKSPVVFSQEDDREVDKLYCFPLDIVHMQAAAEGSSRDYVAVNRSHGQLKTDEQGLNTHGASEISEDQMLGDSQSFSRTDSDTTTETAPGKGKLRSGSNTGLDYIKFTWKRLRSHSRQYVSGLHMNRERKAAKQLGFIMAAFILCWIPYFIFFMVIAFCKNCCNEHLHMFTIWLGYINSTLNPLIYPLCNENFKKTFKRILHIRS
T2 sequence (P50406 whole entry): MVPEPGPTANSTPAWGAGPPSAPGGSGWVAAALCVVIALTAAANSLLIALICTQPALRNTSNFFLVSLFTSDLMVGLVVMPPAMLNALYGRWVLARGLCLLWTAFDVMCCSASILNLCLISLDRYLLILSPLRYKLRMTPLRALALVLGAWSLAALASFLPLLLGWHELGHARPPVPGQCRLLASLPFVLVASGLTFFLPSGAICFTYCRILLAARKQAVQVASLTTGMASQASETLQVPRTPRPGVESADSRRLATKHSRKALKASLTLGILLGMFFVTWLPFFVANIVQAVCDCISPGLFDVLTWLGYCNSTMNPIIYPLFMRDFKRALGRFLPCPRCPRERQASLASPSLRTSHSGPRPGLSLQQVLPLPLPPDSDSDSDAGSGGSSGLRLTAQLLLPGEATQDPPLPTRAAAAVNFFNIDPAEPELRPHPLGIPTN
T1 sequence (P25021 whole entry): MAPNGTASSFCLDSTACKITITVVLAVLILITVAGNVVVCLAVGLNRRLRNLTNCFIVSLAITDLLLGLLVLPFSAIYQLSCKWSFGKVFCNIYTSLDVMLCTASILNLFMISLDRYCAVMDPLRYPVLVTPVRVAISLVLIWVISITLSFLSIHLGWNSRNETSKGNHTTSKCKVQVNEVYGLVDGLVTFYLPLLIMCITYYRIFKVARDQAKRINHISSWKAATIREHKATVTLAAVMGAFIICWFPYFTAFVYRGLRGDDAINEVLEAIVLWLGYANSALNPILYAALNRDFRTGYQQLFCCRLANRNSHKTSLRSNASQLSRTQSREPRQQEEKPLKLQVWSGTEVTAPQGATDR

Take `COc1ccc(C(O)Cn2c3c(c4cc(C)ccc42)CCN(C)CC3)cc1` (stereo not shown) [Compound No. 48, 2-(2,3,4,5-tetrahydro-3,9-dimethylazepino[4,5-b]indol-6(1H)-yl)-1-(4-methoxyphenyl) ethanol]: the inhibition at 1 µM in assay [1] is 56%; in assay [2], 73%; in assay [3], 98%; in assay [4] it was 95%.

For the compound `Cc1ccc2c(c1)c1c(n2CCc2cncc(Cl)c2)CCN(C)CC1` [Compound No. 4, 6-(2-(5-chloropyridin-3-yl)ethyl)-1,2,3,4,5,6-hexahydro-3,9-dimethylazepino[4,5-b]indole], the inhibition at 1 µM worked out at 59% in assay [1], 83% in assay [2], 100% in assay [3] and 76% in assay [4].

Take `CC(C)NC(=O)Cn1c2c(c3cc(Cl)ccc31)CCN(C)CC2` [Compound No. 31, 2-(9-chloro-2,3,4,5-tetrahydro-3-methylazepino[4,5-b]indol-6(1H)-yl)-N-isopropylacetamide]: the inhibition at 1 µM is -10% in assay [1], 2% in assay [2], 14% in assay [3] and 6% in assay [4].

As to `CN1CCc2c(n(CC(=O)OCc3ccccc3)c3ccc(Cl)cc23)CC1` [Compound No. 75, Benzyl-2-(9-chloro-2,3,4,5-tetrahydro-3-methylazepino[4,5-b]indol-6(1H)-yl)acetate], the inhibition at 1 µM in assay [1] is -4%; in assay [2], -2%; in assay [3], 20%; in assay [4] it was 7%.

For `Cc1ccc2c(c1)c1c(n2CC(O)c2ccc(F)cc2F)CCN(C)CC1` (stereo not shown) [Compound No. 59, 1-(2,4-difluorophenyl)-2-(2,3,4,5-tetrahydro-3,9-dimethylazepino[4,5-b]indol-6(1H)-yl)ethanol], the inhibition at 1 µM came to 37% in assay [1], 97% in assay [2], 60% in assay [3] and 73% in assay [4].

As for `Cc1ccc(C(O)Cn2c3c(c4cc(Cl)ccc42)CCN(C)CC3)cc1` (stereo not shown) [Compound No. 26, 2-(9-chloro-2,3,4,5-tetrahydro-3-methylazepino[4,5-b]indol-6(1H)-yl)-1-p-tolylethanol], the inhibition at 1 µM in assay [1] was found to be 84%; in assay [2] it was 87%; in assay [3], 97%; in assay [4], 94%.

For the compound `Cc1ccc2c(c1)c1c(n2CC(=O)Nc2ccc(F)cc2)CCN(C)CC1` [Compound No. 44, N-(4-fluorophenyl)-2-(2,3,4,5-tetrahydro-3,9-dimethylazepino[4,5-b]indol-6(1H)-yl)acetamide], the inhibition at 1 µM in assay [1] came out at 1%; in assay [2], 1%; in assay [3] it was 16%; in assay [4] it was 10%.

In the case of `CN1CCc2c(n(C#Cc3ccc(Cl)cc3)c3ccc(Cl)cc23)CC1` [Compound No. 282, 9-chloro-6-((4-chlorophenyl)ethynyl)-3-methyl-1,2,3,4,5,6-hexahydroazepino[4,5-b]indole], the inhibition at 1 µM in assay [1] is 87%; in assay [2], 71%; in assay [3] it was 99%; in assay [4] it was 67%.

`CN1CCc2c(n(CCc3ccc(C(=O)O)nc3)c3ccc(Cl)cc23)CC1` [Compound No. 21, 5-(2-(9-chloro-2,3,4,5-tetrahydro-3-methylazepino[4,5-b]indol-6(1H)-yl)ethyl)pyridine-2-carboxylic acid]: the inhibition at 1 µM turned out to be 13% in assay [1], 30% in assay [2], 96% in assay [3] and 17% in assay [4].

As to `Cc1ccc2c(c1)c1c(n2CCc2ccccc2Cl)CCN(C)CC1` [Compound No. 69, 6-(2-chlorophenethyl)-1,2,3,4,5,6-hexahydro-3,9-dimethylazepino[4,5-b]indole], the inhibition at 1 µM in assay [1] was -9%; in assay [2], -4%; in assay [3] it was 2%; in assay [4], -5%.

Regarding `Cc1ccc(C(O)Cn2c3c(c4cc(C)ccc42)CCN(C)CC3)cc1` (stereo not shown) [Compound No. 27, 2-(2,3,4,5-tetrahydro-3,9-dimethylazepino[4,5-b]indol-6(1H)-yl)-1-p-tolylethanol], the inhibition at 1 µM amounted to 78% in assay [1], 92% in assay [2], 101% in assay [3] and 95% in assay [4].

As for `Cc1ccc2c(c1)c1c(n2CCc2ccccc2)CCN(C)CC1` [Compound No. 62, 1,2,3,4,5,6-hexahydro-3,9-dimethyl-6-phenethylazepino[4,5-b]indole], the inhibition at 1 µM was 79% in assay [1], -4% in assay [2], 98% in assay [3] and 12% in assay [4].

Regarding `Cc1ccc(CCn2c3c(c4cc(Cl)ccc42)CCN(C)CC3)cc1` [Compound No. 46, 9-chloro-3-methyl-6-(4-methylphenethyl)-1,2,3,4,5,6-hexahydroazepino[4,5-b]indole], the inhibition at 1 µM in assay [1] was found to be 89%; in assay [2] it was 98%; in assay [3], 108%; in assay [4], 88%.

On to `CN1CCc2c(n(CCc3ccc(Cl)cc3)c3ccc(Cl)cc23)CC1` [Compound No. 30, 6-(4-chlorophenethyl)-9-chloro-1,2,3,4,5,6-hexahydro-3-methylazepino[4,5-b]indole], for which the inhibition at 1 µM stood at 97% in assay [1], 86% in assay [2], 102% in assay [3] and 89% in assay [4].

Consider `CN1CCc2c(n(CC(=O)N(C)C3CCCCC3)c3ccc(Cl)cc23)CC1` [Compound No. 74, 2-(9-chloro-2,3,4,5-tetrahydro-3-methylazepino[4,5-b]indol-6(1H)-yl)-N-cyclohexyl-N-methylacetamide], for which the inhibition at 1 µM in assay [1] was 9%; in assay [2] it was -4%; in assay [3], 25%; in assay [4] it was 17%.

In the case of `COc1ccc(C(O)Cn2c3c(c4cc(C)ccc42)CCN(C)CC3)c(F)c1` (stereo not shown) [Compound No. 50, 1-(2-fluoro-4-methoxyphenyl)-2-(2,3,4,5-tetrahydro-3,9-dimethylazepino[4,5-b]indol-6(1H)-yl)ethanol], the inhibition at 1 µM in assay [1] is 65%; in assay [2] it was 88%; in assay [3] it was 98%; in assay [4], 84%.

Consider `CN1CCc2c(n(CC(O)c3ccc(F)cc3)c3ccc(Cl)cc23)CC1` (stereo not shown) [Compound No. 51, 2-(9-chloro-2,3,4,5-tetrahydro-3-methylazepino[4,5-b]indol-6(1H)-yl)-1-(4-fluorophenyl) ethanol], for which the inhibition at 1 µM worked out at 70% in assay [1], 94% in assay [2], 102% in assay [3] and 85% in assay [4].

Consider `C/C(=C\n1c2c(c3cc(Cl)ccc31)CCN(C)CC2)c1ccc(Cl)cc1Cl` [Compound No. 239, (E)-9-chloro-6-(2-(2,4-dichlorophenyl)prop-1-enyl)-3-methyl-1,2,3,4,5,6-hexahydroazepino[4,5-b]indole], for which the inhibition at 1 µM in assay [1] is 89%; in assay [2], 59%; in assay [3], 91%; in assay [4], 28%.

For the compound `CN1CCc2c(n(CCc3ccncc3)c3ccc(Cl)cc23)CC1` [Compound No. 5, 9-chloro-1,2,3,4,5,6-hexahydro-3-methyl-6-(2-(pyridin-4-yl)ethyl)azepino[4,5-b]indole], the inhibition at 1 µM is 62% in assay [1], 93% in assay [2], 100% in assay [3] and 88% in assay [4].

For the origin of these results see patent US9481676B2, “Azepino[4,5-B]indoles and methods of use” (Medivation Technologies, Inc., priority 2008, dated 2016).
